Source: US20050197336A1 (Miikana Therapeutics Corporation, priority 2004, published 2005)

Columns and labels:
MCF7 cells = experiment: Whole cell cytotoxicity assay: Sulforhodamine B; format: cell-based, human; details: Homo sapiens; compound at 100 μM; MCF7 cell growth; 48 hours with drug; SRB staining
Method in brief: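 MCF7 cells in DMEM with 10% FBS were seeded 24 h before compound, then exposed to nine concentrations for 48 h at 37° C. TCA-fixed cells stained with sulforhodamine B; absorbance at 570 nm, with a time-zero plate fixed at drug addition.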

[1] = test system: Histone deacetylase (HDAC), HeLa cell nuclear extract; experiment: In vitro fluorescent histone deacetylase assay (Biomol kit, HeLa cell nuclear extract); format: biochemical; details: compound at 100 μM; HeLa cell nuclear extract as HDAC source; substrate 50 μM; 10 min at room temperature
Method in brief: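 HeLa nuclear extract supplies mixed HDAC activity acting on fluorogenic substrate at 50 μM final, 10 min at room temperature before stopping. Compounds serially diluted in assay buffer, final DMSO ≤2%. Fluorescence read at ex 355/em 460 nm.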

SMILES | inhibition at 100 µM (MCF7 cells) | % inhibition HDAC @ 100 μM [1]
O=C(NO)c1cnc(N2CCN(S(=O)(=O)c3ccc(CN4CCCC4)cc3)CC2)s1 [Example 105] | 93% | 99%
CN(C)Cc1cccc(-c2ccc(S(=O)(=O)N3CCN(c4ncc(C(=O)NO)s4)CC3)cc2)c1.Cl [Example 74] | 97.3% | 100%
Cc1ccc(S(=O)(=O)N2CCN(c3ncc(C(=O)NO)s3)CC2)cc1F [Example 40, 2-[4-(3-fluoro-4-methylphenylsulfonyl)-piperazin-1-yl]-thiazole-5-carboxylic acid hydroxyamide] | 99.1% | 100%
Cl.O=C(NO)c1cnc(N2CCN(S(=O)(=O)c3ccc(-c4cccc(CN5CCCCCC5)c4)cc3)CC2)s1 [Example 77] | 98% | 100%
Cc1ccc(S(=O)(=O)N2CCN(c3ncc(C(=O)NO)s3)CC2)cc1 [Example 4, 2-[4-(4-toluene-4-sulfonyl)-piperazin-1-yl]-thiazole-5-carboxylic acid hydroxyamide] | 95.4% | 100%
CC1CCN(Cc2cccc(-c3ccc(S(=O)(=O)N4CCN(c5ncc(C(=O)NO)s5)CC4)cc3)c2)CC1.Cl [Example 76] | 98% | 99%
Cc1noc(C)c1S(=O)(=O)N1CCN(c2ncc(C(=O)NO)s2)CC1 [Example 27, 2-[4-(3,5-dimethylisoxazolesulfonyl)-pipiperazin-1-yl]-thiazole-5-carboxylic acid hydroxyamide] | 88.5% | 99%
CN(C)Cc1sccc1-c1ccc(S(=O)(=O)N2CCN(c3ncc(C(=O)NO)s3)CC2)cc1 [Example 81] | 97.1% | 100%
CN(C)c1cccc2c(S(=O)(=O)N3CCN(c4ncc(C(=O)NO)s4)CC3)cccc12 [Example 10, 2-[4-(5-dimethylamino-naphthalene-1-sulfonyl)-piperazin-1-yl]-thiazole-5-carboxylic acid hydroxyamide] | 97.8% | 88%
O=C(NO)c1cnc(N2CCN(S(=O)(=O)c3ccc(-c4ccco4)cc3)CC2)s1 [Example 59, 2-(4-{[4-(2-furyl)phenyl]sulfonyl}piperazin-1-yl)-1,3-thiazole-5-carboxylic acid hydroxyamide] | 98.9% | 99%
O=C(NO)c1cnc(N2CCN(S(=O)(=O)c3cccc(F)c3)CC2)s1 [Example 35, 2-[4-(3-fluorophenylsulfonyl)-piperazin-1-yl]-thiazole-5-carboxylic acid hydroxyamide] | 97.9% | 97%
Cl.O=C(NO)c1cnc(N2CCN(S(=O)(=O)c3ccc(-c4cccc(CN5CCCC5)c4)cc3)CC2)s1 [Example 75] | 98.6% | 100%
CN(C)Cc1cccc(S(=O)(=O)N2CCN(c3ncc(C(=O)NO)s3)CC2)c1 [Example 97] | 83.9% | 99%
